Values quoted from earlier work in US20170001952A1, “FUMARATE COMPOUNDS, PHARMACEUTICAL COMPOSITIONS THEREOF, AND METHODS OF USE” (priority 2015, published 2017).

Question: Which aqueous solubility does the source give for `COC(=O)/C=C/C(=O)OC` [DMF, dimethylfumarate] here?
Answer: Its aqueous solubility is “poor aqueous solubility”.
